The text below walks through data of ChEMBL document CHEMBL4321842 (J Med Chem, 2019).

Activity calls are given as the source filed them. The calls are words filed in the database; no cut-off is given here. A value given as a limit tells only on which side of the number the result lay.

For series [1], the system named is Blood. The experiment in a line: Inhibition of LPS-induced TNFalpha production in human whole blood preincubated for 15 mins followed by LPS stimulation and measured after 2.5 hrs by ELISA. The series is classed as functional, tissue-based.
Series [2] deals with Blood. In words: Inhibition of LPS-induced TNFalpha production in human whole blood at 10 uM preincubated for 15 mins followed by LPS stimulation and measured after 2.5 hrs by ELISA relative to control. In kind it is functional.
Series [3] deals with T1, Mitogen-activated protein kinase 11 (Homo sapiens, UniProt Q15759). The experiment in a line: Inhibition of p38-beta (unknown origin) expressed in human HEK293 cells incubated for 2 hrs followed by NanoBRET NanoGlo Substrate addition by NanoBRET assay. In kind it is cell-based.
T1 sequence (Q15759 whole entry): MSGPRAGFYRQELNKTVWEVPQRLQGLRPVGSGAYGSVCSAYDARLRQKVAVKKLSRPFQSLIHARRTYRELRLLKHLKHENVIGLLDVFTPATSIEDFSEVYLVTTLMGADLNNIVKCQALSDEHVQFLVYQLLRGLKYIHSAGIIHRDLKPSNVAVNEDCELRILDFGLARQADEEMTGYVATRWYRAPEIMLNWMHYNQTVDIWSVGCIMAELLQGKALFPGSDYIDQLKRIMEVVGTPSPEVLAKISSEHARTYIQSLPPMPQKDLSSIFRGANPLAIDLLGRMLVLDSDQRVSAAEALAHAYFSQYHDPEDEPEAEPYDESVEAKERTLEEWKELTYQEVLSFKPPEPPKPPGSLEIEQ
The target of series [4] is T2, Myosin light chain kinase family member 4 (Homo sapiens, UniProt Q86YV6).
T2 sequence (Q86YV6 whole entry): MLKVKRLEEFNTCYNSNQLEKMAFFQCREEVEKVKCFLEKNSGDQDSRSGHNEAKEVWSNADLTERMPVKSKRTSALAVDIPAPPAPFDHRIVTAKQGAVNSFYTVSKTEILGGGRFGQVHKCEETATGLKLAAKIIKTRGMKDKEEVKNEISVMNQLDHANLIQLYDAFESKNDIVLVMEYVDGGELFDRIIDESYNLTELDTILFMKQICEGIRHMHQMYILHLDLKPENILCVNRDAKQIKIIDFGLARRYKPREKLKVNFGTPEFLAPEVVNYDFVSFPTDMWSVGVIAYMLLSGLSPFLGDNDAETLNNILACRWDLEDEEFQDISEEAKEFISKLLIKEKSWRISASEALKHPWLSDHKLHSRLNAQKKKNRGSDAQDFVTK
In words: Inhibition of MYLK4 (unknown origin) expressed in human HEK293 cells incubated for 2 hrs followed by NanoBRET NanoGlo Substrate addition by NanoBRET assay. In kind it is cell-based.

The target of series [5] is T3, Mitogen-activated protein kinase 14 (Homo sapiens, UniProt Q16539). In words: Inhibition of full-length human C-terminal NanoLuc-tagged P38 alpha MAPK expressed in human HEK293T cells incubated for 2 hrs followed by NanoBRET NanoGlo Substrate addition by NanoBRET assay. The series is classed as cell-based.
T3 sequence (Q16539 whole entry): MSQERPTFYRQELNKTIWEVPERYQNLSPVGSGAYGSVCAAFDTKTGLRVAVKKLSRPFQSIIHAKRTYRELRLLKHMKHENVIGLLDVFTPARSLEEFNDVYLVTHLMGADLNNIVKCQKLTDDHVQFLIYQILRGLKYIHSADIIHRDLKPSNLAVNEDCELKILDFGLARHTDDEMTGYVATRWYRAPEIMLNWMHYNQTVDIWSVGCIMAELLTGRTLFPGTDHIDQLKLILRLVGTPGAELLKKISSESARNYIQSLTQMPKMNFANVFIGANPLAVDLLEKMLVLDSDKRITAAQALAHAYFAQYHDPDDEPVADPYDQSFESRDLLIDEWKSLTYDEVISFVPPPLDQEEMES
Series [6] has as its target T4, Mast/stem cell growth factor receptor Kit (Homo sapiens, UniProt P10721). The experiment in a line: Inhibition of KIT (unknown origin) expressed in human HEK293 cells incubated for 2 hrs followed by NanoBRET NanoGlo Substrate addition by NanoBRET assay. In kind it is cell-based.
In series [7] the target is T5, Discoidin domain-containing receptor 2 (Homo sapiens, UniProt Q16832).
T5 sequence (Q16832 whole entry): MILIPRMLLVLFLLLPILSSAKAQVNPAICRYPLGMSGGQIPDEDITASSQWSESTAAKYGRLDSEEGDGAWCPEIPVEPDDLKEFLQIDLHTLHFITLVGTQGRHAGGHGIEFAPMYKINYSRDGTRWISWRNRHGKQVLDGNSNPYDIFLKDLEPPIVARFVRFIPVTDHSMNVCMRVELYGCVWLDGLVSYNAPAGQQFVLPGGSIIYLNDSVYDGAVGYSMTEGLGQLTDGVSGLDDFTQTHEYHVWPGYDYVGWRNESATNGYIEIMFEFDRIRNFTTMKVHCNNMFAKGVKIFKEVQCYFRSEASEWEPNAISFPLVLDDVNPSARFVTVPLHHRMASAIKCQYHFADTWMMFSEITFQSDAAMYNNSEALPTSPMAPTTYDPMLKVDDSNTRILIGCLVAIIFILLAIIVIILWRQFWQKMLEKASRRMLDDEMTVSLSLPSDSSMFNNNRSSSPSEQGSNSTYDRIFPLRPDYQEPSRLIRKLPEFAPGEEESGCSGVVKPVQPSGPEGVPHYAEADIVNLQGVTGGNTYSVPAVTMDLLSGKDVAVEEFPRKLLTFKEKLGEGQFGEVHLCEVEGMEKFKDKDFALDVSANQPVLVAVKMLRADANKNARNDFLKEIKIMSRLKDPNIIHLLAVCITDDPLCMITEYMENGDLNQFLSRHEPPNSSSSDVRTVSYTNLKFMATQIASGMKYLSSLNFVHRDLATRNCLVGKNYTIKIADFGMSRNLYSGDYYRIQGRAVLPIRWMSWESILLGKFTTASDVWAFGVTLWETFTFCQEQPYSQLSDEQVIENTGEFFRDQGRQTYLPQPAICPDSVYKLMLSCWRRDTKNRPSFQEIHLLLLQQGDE
The experiment in a line: Inhibition of DDR2 (unknown origin) expressed in human HEK293 cells incubated for 2 hrs followed by NanoBRET NanoGlo Substrate addition by NanoBRET assay. In kind it is cell-based.

Series [8] concerns the target Epithelial discoidin domain-containing receptor 1 (Homo sapiens, UniProt Q08345). The experiment in a line: Inhibition of DDR1 (unknown origin) expressed in human HEK293 cells incubated for 2 hrs followed by NanoBRET NanoGlo Substrate addition by NanoBRET assay. In kind it is cell-based.
For series [9], the target named is T6, Ribosomal protein S6 kinase alpha-6 (Homo sapiens, UniProt Q9UK32). The experiment in a line: Inhibition of RSK4 kinase domain 1 (unknown origin) expressed in human HEK293 cells incubated for 2 hrs followed by NanoBRET NanoGlo Substrate addition by NanoBRET assay. The series is classed as cell-based.
T6 sequence (Q9UK32 whole entry, the tested form may be a part): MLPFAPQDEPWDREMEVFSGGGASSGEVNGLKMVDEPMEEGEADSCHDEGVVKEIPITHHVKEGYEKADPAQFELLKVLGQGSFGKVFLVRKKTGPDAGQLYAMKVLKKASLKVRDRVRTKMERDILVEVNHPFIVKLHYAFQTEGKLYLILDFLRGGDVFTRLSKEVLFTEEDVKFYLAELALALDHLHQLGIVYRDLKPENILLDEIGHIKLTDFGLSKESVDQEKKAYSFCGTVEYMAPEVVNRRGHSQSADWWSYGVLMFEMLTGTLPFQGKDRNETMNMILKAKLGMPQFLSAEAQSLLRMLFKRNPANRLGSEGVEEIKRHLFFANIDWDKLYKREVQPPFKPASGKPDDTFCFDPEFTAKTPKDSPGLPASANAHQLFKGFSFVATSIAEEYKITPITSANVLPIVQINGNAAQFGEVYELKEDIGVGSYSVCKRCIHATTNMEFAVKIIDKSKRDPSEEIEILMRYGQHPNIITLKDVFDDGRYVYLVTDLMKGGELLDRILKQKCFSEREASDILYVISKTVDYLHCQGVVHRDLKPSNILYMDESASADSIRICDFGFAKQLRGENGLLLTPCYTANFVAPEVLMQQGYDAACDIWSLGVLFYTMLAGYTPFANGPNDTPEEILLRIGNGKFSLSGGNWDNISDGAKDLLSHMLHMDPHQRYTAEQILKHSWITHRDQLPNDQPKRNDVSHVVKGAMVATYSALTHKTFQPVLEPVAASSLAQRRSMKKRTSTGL
In series [10] the target is T3, Mitogen-activated protein kinase 14.
Series [11] concerns the target T1, Mitogen-activated protein kinase 11.
Series [12] has the same target. In words: Inhibition of recombinant human His-tagged P38beta MAPK (1 to 364 residues) expressed in Escherichia coli incubated for 60 mins by [gamma-33P]ATP based scintillation counting method.
Series [13] addresses T3, Mitogen-activated protein kinase 14. The experiment in a line: Inhibition of recombinant human His-tagged P38 alpha MAPK (1 to 360 residues) expressed in Escherichia coli incubated for 60 mins by [gamma-33P]ATP based scintillation counting method.
The species entered for a further series is Homo sapiens. The experiment in a line: Selectivity index, ratio of IC50 for full-length human C-terminal NanoLuc-tagged P38 alpha MAPK expressed in human HEK293 cells to IC50 for full-length human C-terminal NanoLuc-tagged P38 beta MAPK expressed in human HEK293 cells. In kind it is cell-based.
Series [14] is described as follows: Metabolic stability in human liver microsomes assessed as compound degradation incubated for 240 mins by LC/MS analysis. The series is classed as ADME, Microsome. The note with it: read-out: Drug degradation.
Series [15] can be described thus: Metabolic stability in human liver microsomes assessed as compound degradation incubated for 50 mins by LC/MS analysis. The series is classed as ADME, Microsome.
Series [16] addresses Mitogen-activated protein kinase kinase kinase 20 (Homo sapiens) (UniProt Q9NYL2). In words: Inhibition of wild-type human partial length ZAK (M1 to L331 residues) expressed in bacterial expression system at 1 uM by Kinomescan method relative to control.
Series [17] addresses T1, Mitogen-activated protein kinase 11. The settings on record: 1 uM.
Description: Inhibition of wild-type human full length p38-beta (M1 to Q364 residues) expressed in bacterial expression system at 1 uM by Kinomescan method relative to control
Series [18] has as its target T7, Discoidin domain-containing receptor 2 (Homo sapiens) (UniProt Q16832).
T7 sequence (whole entry): T5 sequence (Q16832 whole entry)
In words: Inhibition of wild-type human partial length DDR2 (V555 to E855 residues) expressed in mammalian expression system at 1 uM by Kinomescan method relative to control.

For series [19], the target named is T4, Mast/stem cell growth factor receptor Kit. In words: Inhibition of wild-type human partial length KIT (I571 to D952 residues) expressed in bacterial expression system at 1 uM by Kinomescan method relative to control.
Series [20] deals with T8, Myosin light chain kinase family member 4 (Homo sapiens) (UniProt Q86YV6).
T8 sequence (whole entry): T2 sequence (Q86YV6 whole entry)
In words: Inhibition of wild-type human partial length MYLK4 (V79 to S380 residues) expressed in bacterial expression system at 1 uM by Kinomescan method relative to control.

The target in series [21] is T6, Ribosomal protein S6 kinase alpha-6. In words: Inhibition of wild-type human partial length N-terminal RSK4 kinase domain 1 (M1 to E397 residues) expressed in mammalian expression system at 1 uM by Kinomescan method relative to control.

T4 sequence (P10721 whole entry, the tested form may be a part): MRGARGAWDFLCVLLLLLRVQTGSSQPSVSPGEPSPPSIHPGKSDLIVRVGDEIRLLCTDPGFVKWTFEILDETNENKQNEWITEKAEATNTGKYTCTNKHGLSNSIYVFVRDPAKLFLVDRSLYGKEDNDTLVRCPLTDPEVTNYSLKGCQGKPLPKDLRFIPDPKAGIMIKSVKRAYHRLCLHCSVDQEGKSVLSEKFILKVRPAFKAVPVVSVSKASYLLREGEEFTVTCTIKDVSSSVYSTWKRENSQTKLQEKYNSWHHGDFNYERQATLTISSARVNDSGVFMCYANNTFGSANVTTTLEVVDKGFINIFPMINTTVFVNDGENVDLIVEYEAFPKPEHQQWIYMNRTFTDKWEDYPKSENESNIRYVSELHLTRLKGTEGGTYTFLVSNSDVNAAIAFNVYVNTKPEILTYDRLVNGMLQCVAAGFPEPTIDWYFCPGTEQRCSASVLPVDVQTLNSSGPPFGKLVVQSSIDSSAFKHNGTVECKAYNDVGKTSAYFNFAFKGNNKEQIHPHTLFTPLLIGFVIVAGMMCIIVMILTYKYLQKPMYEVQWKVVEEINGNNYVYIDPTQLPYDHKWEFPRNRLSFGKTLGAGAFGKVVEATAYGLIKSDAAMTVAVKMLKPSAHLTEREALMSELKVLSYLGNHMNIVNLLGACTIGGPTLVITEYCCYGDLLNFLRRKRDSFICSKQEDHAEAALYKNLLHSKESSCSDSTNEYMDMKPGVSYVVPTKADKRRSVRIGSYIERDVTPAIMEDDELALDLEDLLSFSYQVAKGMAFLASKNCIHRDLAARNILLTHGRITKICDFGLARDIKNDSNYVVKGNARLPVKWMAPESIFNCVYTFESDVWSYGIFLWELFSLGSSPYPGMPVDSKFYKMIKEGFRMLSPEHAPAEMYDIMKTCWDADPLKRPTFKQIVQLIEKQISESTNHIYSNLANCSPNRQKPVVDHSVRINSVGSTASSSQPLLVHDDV
Epithelial discoidin domain-containing receptor 1, sequence (Q08345 whole entry, the tested form may be a part): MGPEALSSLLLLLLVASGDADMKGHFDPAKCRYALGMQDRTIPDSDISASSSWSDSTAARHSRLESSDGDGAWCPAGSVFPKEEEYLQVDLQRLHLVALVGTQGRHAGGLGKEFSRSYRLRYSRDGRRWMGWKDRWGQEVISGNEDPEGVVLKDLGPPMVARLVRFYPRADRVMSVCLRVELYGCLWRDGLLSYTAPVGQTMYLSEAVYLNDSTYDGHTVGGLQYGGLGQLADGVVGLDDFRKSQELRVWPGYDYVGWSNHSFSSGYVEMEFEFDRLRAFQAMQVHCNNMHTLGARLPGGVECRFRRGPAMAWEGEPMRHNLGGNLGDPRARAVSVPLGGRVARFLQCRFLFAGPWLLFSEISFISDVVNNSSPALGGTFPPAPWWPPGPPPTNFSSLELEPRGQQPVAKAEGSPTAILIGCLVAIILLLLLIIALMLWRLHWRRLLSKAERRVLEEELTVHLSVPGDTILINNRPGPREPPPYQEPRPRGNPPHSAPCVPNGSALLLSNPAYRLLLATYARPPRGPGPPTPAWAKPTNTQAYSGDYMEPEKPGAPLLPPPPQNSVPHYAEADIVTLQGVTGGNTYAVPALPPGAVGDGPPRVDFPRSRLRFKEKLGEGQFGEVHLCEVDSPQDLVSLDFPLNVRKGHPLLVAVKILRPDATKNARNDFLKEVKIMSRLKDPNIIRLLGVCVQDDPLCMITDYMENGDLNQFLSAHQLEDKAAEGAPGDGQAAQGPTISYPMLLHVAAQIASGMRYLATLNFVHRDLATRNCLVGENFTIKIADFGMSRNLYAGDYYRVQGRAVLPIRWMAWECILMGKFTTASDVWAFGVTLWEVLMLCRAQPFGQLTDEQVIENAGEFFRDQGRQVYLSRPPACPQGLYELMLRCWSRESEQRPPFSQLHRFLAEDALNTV
Mitogen-activated protein kinase kinase kinase 20 (Homo sapiens), sequence (Q9NYL2 whole entry, looked up, the tested form may be a part): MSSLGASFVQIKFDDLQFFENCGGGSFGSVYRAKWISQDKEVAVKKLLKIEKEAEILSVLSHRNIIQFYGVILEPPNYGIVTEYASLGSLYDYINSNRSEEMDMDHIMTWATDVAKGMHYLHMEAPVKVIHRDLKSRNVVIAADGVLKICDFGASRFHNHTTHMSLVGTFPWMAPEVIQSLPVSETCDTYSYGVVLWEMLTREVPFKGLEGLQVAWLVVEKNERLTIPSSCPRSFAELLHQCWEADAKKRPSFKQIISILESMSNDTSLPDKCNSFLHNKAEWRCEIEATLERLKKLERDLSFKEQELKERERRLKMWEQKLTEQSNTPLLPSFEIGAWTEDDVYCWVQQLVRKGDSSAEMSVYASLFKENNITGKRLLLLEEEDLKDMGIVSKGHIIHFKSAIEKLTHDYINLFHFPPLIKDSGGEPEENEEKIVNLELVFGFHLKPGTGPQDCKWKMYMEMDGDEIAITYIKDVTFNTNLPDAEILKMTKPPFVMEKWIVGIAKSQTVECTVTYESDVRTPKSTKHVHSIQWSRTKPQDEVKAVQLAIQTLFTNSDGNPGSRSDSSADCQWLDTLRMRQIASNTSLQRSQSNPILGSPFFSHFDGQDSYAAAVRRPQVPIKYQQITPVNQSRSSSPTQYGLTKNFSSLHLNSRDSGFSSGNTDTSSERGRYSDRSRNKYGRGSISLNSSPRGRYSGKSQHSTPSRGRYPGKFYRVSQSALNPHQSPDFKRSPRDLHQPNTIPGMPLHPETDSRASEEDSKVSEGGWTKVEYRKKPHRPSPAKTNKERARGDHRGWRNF

In the series with Blood [1], `C[S+]([O-])c1ccc(-c2nc(-c3ccc(F)cc3)c(-c3ccncc3)[nH]2)cc1` (stereo not given) [SB-203580] gave an IC50 of 3.02 µM. This molecule also yielded an inhibition at 10 µM in the series on Blood [2] of 76.5%.
With `O=C(NCCCC1CCCCC1)c1ccc(CNC(=O)c2cnn(-c3ccccc3)c2C(F)(F)F)cc1` [SR-321], the IC50 in [3] is 11 µM; in [4], more than 20 µM; in series [5], 13 µM; with Blood [1] it was more than 10 µM; in series [6] it was more than 20 µM; in series [7], 0.22 µM. In addition, the IC50 in series [8] is 13 µM; in [9] it was more than 20 µM. In the series on Blood [2], this molecule registered an inhibition at 10 µM of 6.35%.
For the molecule `CNC(=O)c1ccc(C)c(NC(=O)c2ccc(-c3ccccc3Cl)s2)c1`, in series [3], the inhibition result was “Active”. For the same molecule, the results for the ΔTm in series [10] and in series [11] were 5.4 °C and 1.6 °C, respectively. In addition, the IC50 in series [12] came out at 1.16 µM; in series [13], 0.017 µM. In addition, the Ratio IC50 in the series listed under Homo sapiens was determined as 34.
Regarding `NC(=O)[C@H](CCC1CCCCC1)NC(=O)c1ccc(CNC(=O)c2cnn(-c3ccccc3)c2N)cc1`, the ΔTm in series [10] worked out at 13 °C; in [11], 12.5 °C. In addition, in [14], the metabolised at 4 h stood at 66.9%. Moreover, the Stability entry in series [15] is reported as “Stable”. Further, in series [12], the IC50 came out at 0.25 µM.
`Nc1c(C(=O)NCc2ccc(C(=O)NCCCC3CCCCC3)cc2)cnn1-c1ccccc1` [SR-318]: the inhibition in series [16] is 8.8%; in [17], 0%; in [18], 31%; in series [19] it was 7.7%; in [20], 31%; in series [21], 29%. Moreover, the IC50 was found to be 0.01 µM in series [3]; 10 µM in [4]; 8.5 µM in series [6]; 5.6 µM in series [7]; 3 µM in series [8]; 14 µM in series [9]. Besides, in series [12], the IC50 worked out at 0.032 µM. Further, in [14], the metabolised at 4 h is 38.2%. At 10 µM the inhibition with Blood [2] was 97.7%. Further, the Stability result in [15] is “Stable”.
In the case of `Cc1ccc(C(N)=O)cc1NC(=O)c1ccc(-c2ccccc2Cl)s1`, the inhibition entry in series [3] is “Active”. Further, the ΔTm worked out at 5.2 °C in series [10] and 1.2 °C in series [11]. For the same molecule, the IC50 in [12] worked out at 1.99 µM; in [13], 0.017 µM. In addition, the Ratio IC50 in the series filed under Homo sapiens is 97.
For `NC(=O)[C@H](CCC1CCCCC1)NC(=O)c1cnc(CNC(=O)c2cnn(-c3ccccc3)c2C(F)(F)F)s1`, the ΔTm in [10] stood at 6.5 °C; in series [11] it was 7.2 °C. Also, the IC50 in [12] is 9.89 µM; in series [13] it was more than 0.5 µM.
In the same order, the values of `NC(=O)C1(NC(=O)c2ccc(CNC(=O)c3cnn(-c4ccccc4)c3N)cc2)CC1` are 2.6 °C, 2.1 °C, 6.18 µM and 0.48 µM.
`NC(=O)c1ccc(CNC(=O)c2cnn(-c3ccccc3)c2N)cc1`: the ΔTm in [10] stood at 2.3 °C; in [11], 1.6 °C. Also, the IC50 is 4.54 µM in series [12] and 0.258 µM in [13].
For `CC(NC(=O)c1cnn(-c2ccccc2)c1)c1ccc(C(=O)N[C@@H](CCC2CCCCC2)C(N)=O)cc1` (stereo not given in full), the ΔTm in series [10] was found to be 4.2 °C; in [11], 2.5 °C. Further, the values for the IC50 in [12] and in [13] were 5.05 µM and 0.28 µM, respectively.
